Literature values in patent US11992559B2, “Microsphere formulations comprising lurasidone and methods for making and using the same” (Oakwood Laboratories, LLC, priority 2021, dated 2024).
Counter-ions that a name gives are not always drawn.

Legend:
[1] = at 25° C.

solubility in benzyl alcohol (benzyl alcohol): 69.19 mg/g | solubility in dichloromethane (dichloromethane): 24.43 mg/g | water solubility (water): 0.224 mg/mL | specific hydrophobicity log Pow [1]: 5.6
Structure (SMILES): O=C1[C@@H]2[C@H]3CC[C@H](C3)[C@@H]2C(=O)N1C[C@@H]1CCCC[C@H]1CN1CCN(c2nsc3ccccc23)CC1 [lurasidone HCl, Lurasidone]
